According to patent US11229623B2 (GlaxoSmithKline Intellectual Property (No.2) Limited, priority 2016, dated 2022):

Each compound was assayed against T1, human TRPV4 (Homo sapiens, UniProt Q9HBA0) (assay: FLIPR assay for hTRPV4 expressed in BHK cells: inhibition of Agonist Compound-induced calcium signal). Settings: not given.
T1 construct: expressed in transfected cells; host or cells: BHK/AC9 cells transduced with BacMam virus
Format: cell-based
Method in brief: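 Calcium influx through TRPV4 tracked by Fluo-4 fluorescence on FLIPR. Cells: BHK/AC9 transduced with BacMam-hTRPV4 at MOI 78, 24 h culture post-plating (15,000 cells/well). Dye loading: 2 μM Fluo-4 AM with 500 μM Brilliant Black quencher, 1-1.5 h, room temperature, dark.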

T1 sequence (Q9HBA0 whole entry): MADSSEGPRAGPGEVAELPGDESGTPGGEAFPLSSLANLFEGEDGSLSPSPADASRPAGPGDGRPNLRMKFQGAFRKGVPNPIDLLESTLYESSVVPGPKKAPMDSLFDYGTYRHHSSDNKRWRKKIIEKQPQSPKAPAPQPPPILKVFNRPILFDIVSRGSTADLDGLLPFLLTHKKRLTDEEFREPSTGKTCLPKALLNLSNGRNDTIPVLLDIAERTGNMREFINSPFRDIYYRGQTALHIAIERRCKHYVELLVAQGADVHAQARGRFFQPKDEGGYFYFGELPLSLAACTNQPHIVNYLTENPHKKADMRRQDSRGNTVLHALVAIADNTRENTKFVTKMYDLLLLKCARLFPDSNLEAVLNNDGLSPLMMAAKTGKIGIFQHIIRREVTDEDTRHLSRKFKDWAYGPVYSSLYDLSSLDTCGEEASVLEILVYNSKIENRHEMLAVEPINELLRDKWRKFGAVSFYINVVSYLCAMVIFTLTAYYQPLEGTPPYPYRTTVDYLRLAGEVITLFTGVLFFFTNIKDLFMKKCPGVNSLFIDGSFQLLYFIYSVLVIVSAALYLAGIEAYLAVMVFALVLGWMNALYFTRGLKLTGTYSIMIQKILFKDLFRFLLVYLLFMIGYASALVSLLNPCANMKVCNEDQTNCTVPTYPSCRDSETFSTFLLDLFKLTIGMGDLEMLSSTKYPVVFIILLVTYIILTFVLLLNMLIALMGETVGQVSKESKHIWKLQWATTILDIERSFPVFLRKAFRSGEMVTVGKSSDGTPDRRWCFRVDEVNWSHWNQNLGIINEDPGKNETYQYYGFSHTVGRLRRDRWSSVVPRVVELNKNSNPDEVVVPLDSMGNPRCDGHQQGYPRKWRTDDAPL

First: C[C@H](O)[C@]1(O)CN(S(=O)(=O)c2ccc(Cl)cn2)C[C@@H]1Oc1ccc(C#N)c(F)c1 [Example 191]
Second: C[C@@H](O)[C@]1(O)CN(S(=O)(=O)c2ccc(Cl)cn2)C[C@@H]1Oc1ccc(C#N)c(F)c1 [Example 195]
The IC50 of the first is higher: 100 to 1000 nM for the first, 0.1 to 10 nM for the second.

Same assay, conditions: hTRPV4 FLIPR assay; average in at least one set of experimental runs; read-out: average IC50

In the case of C[C@H](O)[C@@]1(O)CN(S(=O)(=O)c2ccc(C(F)(F)F)cc2C#N)C[C@@H]1Oc1ccc(C#N)c(F)c1 [Example 194, 4-(((3S,4S)-1-((2-cyano-4-(trifluoromethyl)phenyl)sulfonyl)-4-hydroxy-4-((S)-1-hydroxyethyl)pyrrolidin-3-yl)oxy)-2-fluorobenzonitrile], the IC50 is reported as 40 nM.

Same assay, conditions: hTRPV4 in BHK/AC9 cells, FLIPR calcium signal, agonist at EC80; reported as range class; read-out: IC50

First: N#Cc1cc(OCC(F)(F)F)c(O[C@H]2CN(S(=O)(=O)c3ccccc3C#N)C[C@@]2(O)CO)cc1F [Example 173, 4-(((3S,4R)-1-((2-cyanophenyl)sulfonyl)-4-hydroxy-4-(hydroxymethyl)pyrrolidin-3-yl)oxy)-2-fluoro-5-(2,2,2-trifluoroethoxy) benzonitrile]
Second: N#Cc1cc(OCC(F)(F)F)c(O[C@H]2CN(S(=O)(=O)c3ccccc3)C[C@@]2(O)CO)cc1F [Example 176, 2-fluoro-4-(((3S,4R)-4-hydroxy-4-(hydroxymethyl)-1-(phenylsulfonyl)pyrrolidin-3-yl)oxy)-5-(2,2,2-trifluoroethoxy) benzonitrile]
The IC50 of the first is lower: 0.1 to 10 nM for the first, 10 to 100 nM for the second. The first is the more potent here.

N#Cc1ccc(S(=O)(=O)N2C[C@H](Oc3cc(F)c(C#N)cc3OCC(F)(F)F)[C@](O)(CO)C2)cn1 [Example 174, 5-(((3R,4S)-4-(4-cyano-5-fluoro-2-(2,2,2-trifluoroethoxy)phenoxy)-3-hydroxy-3-(hydroxymethyl)pyrrolidin-1-yl)sulfonyl) picolinonitrile] and N#Cc1ccc(S(=O)(=O)N2C[C@H](Oc3cc(F)c(C#N)cc3OCC(F)(F)F)[C@](O)(CO)C2)cc1 [Example 178, 4-(((3S,4R)-1-((4-cyanophenyl)sulfonyl)-4-hydroxy-4-(hydroxymethyl)pyrrolidin-3-yl)oxy)-2-fluoro-5-(2,2,2-trifluoroethoxy) benzonitrile] fall in the same range of IC50: 0.1 to 10 nM for the first, 0.1 to 10 nM for the second.

N#Cc1cc(OCC(F)(F)F)c(O[C@H]2CN(S(=O)(=O)c3ccc(C(F)(F)F)nc3)C[C@@]2(O)CO)cc1F [Example 175, 2-fluoro-4-(((3S,4R)-4-hydroxy-4-(hydroxymethyl)-1-((6-(trifluoromethyl)pyridin-3 yl)sulfonyl)pyrrolidin-3-yl)oxy)-5-(2,2,2-trifluoroethoxy) benzonitrile] and CC(C)COc1cc(C#N)c(F)cc1O[C@H]1CN(S(=O)(=O)c2ccc(C(F)(F)F)nc2)C[C@@]1(O)CO [Example 183, 2-fluoro-4-(((3S,4R)-4-hydroxy-4-(hydroxymethyl)-1-((6-(trifluoromethyl)pyridin-3-yl)sulfonyl)pyrrolidin-3-yl)oxy)-5-isobutoxybenzonitrile] fall in the same range of IC50: 10 to 100 nM for the first, 10 to 100 nM for the second.

N#Cc1cc(OCC(F)(F)F)c(O[C@H]2CN(S(=O)(=O)c3ccc(Cl)cc3Cl)C[C@@]2(O)CO)cc1F [Example 177, 4-(((3S,4R)-1-((2,4-dichlorophenyl)sulfonyl)-4-hydroxy-4-(hydroxymethyl)pyrrolidin-3-yl)oxy)-2-fluoro-5-(2,2,2-trifluoroethoxy) benzonitrile] and N#Cc1cc(OCC(F)(F)F)c(O[C@H]2CN(S(=O)(=O)c3ccc(Cl)cn3)C[C@@]2(O)CO)cc1F [Example 187, 4-(((3S,4R)-1-((5-chloropyridin-2-yl)sulfonyl)-4-hydroxy-4-(hydroxymethyl)pyrrolidin-3-yl)oxy)-2-fluoro-5-(2,2,2-trifluoroethoxy) benzonitrile] fall in the same range of IC50: 0.1 to 10 nM for the first, 0.1 to 10 nM for the second.

CC(C)COc1cc(C#N)c(F)cc1O[C@H]1CN(S(=O)(=O)c2ccccc2C#N)C[C@@]1(O)CO [Example 179, 4-(((3S,4R)-1-((2-cyanophenyl)sulfonyl)-4-hydroxy-4-(hydroxymethyl)pyrrolidin-3-yl)oxy)-2-fluoro-5-isobutoxybenzonitrile] and CC(C)COc1cc(C#N)c(F)cc1O[C@H]1CN(S(=O)(=O)c2ccc(C#N)cc2)C[C@@]1(O)CO [Example 180, 4-(((3S,4R)-1-((4-cyanophenyl)sulfonyl)-4-hydroxy-4-(hydroxymethyl)pyrrolidin-3-yl)oxy)-2-fluoro-5-isobutoxybenzonitrile] fall in the same range of IC50: 0.1 to 10 nM for the first, 0.1 to 10 nM for the second.

Compared with CC(C)COc1cc(C#N)c(F)cc1O[C@H]1CN(S(=O)(=O)c2ccc(C#N)nc2)C[C@@]1(O)CO [Example 181, 5-(((3R,4S)-4-(4-cyano-5-fluoro-2-isobutoxyphenoxy)-3-hydroxy-3-(hydroxymethyl)pyrrolidin-1-yl)sulfonyl) picolinonitrile], CC(C)COc1cc(C#N)c(F)cc1O[C@H]1CN(S(=O)(=O)c2ccc(C(F)(F)F)cc2)C[C@@]1(O)CO [Example 182, 2-fluoro-4-(((3S,4R)-4-hydroxy-4-(hydroxymethyl)-1-((4-(trifluoromethyl)phenyl)sulfonyl)pyrrolidin-3-yl)oxy)-5-isobutoxybenzonitrile] is higher in IC50: 0.1 to 10 nM for the first, 10 to 100 nM for the second.

N#Cc1ccc(O[C@H]2CN(S(=O)(=O)c3ccc(C#N)nc3)C[C@@]2(O)CO)c(OCC(F)(F)F)c1 [Example 184, 5-(((3R,4S)-4-(4-cyano-2-(2,2,2-trifluoroethoxy)phenoxy)-3-hydroxy-3-(hydroxymethyl)pyrrolidin-1-yl)sulfonyl) picolinonitrile] and N#Cc1ccc(O[C@H]2CN(S(=O)(=O)c3ccc(Cl)cn3)C[C@@]2(O)CO)c(OCC(F)(F)F)c1 [Example 186, 4-(((3S,4R)-1-((5-chloropyridin-2-yl)sulfonyl)-4-hydroxy-4-(hydroxymethyl)pyrrolidin-3-yl)oxy)-3-(2,2,2-trifluoroethoxy) benzonitrile] fall in the same range of IC50: 10 to 100 nM for the first, 10 to 100 nM for the second.

First: N#Cc1ccc(O[C@H]2CN(S(=O)(=O)c3ccccc3C#N)C[C@@]2(O)CO)c(OCC(F)(F)F)c1 [Example 185, 4-(((3S,4R)-1-((2-cyanophenyl)sulfonyl)-4-hydroxy-4-(hydroxymethyl)pyrrolidin-3-yl)oxy)-3-(2,2,2-trifluoroethoxy) benzonitrile]
Second: C[C@H](O)[C@]1(O)CN(S(=O)(=O)c2ccccc2C#N)C[C@@H]1Oc1ccc(C#N)c(F)c1 [Example 200, 4-(((3S,4R)-1-((2-cyanophenyl)sulfonyl)-4-hydroxy-4-((S)-1-hydroxyethyl)pyrrolidin-3-yl)oxy)-2-fluorobenzonitrile]
The IC50 of the first is lower: 0.1 to 10 nM for the first, 10 to 100 nM for the second. The first is the more potent here.

Cc1ccc(S(=O)(=O)N2C[C@H](Oc3cc(F)c(C#N)cc3OCC(C)C)[C@](O)(CO)C2)nn1 [Example 188, 2-fluoro-4-(((3S,4R)-4-hydroxy-4-(hydroxymethyl)-1-((6-methylpyridazin-3-yl)sulfonyl)pyrrolidin-3-yl)oxy)-5-isobutoxybenzonitrile] and CC(C)C[C@H](O)[C@]1(O)CN(S(=O)(=O)c2ccc(Cl)cn2)C[C@@H]1Oc1ccc(C#N)c(F)c1 [Example 192, 4-(((3S,4R)-1-((5-chloropyridin-2-yl)sulfonyl)-4-hydroxy-4-((S)-1-hydroxy-3-methylbutyl)pyrrolidin-3-yl)oxy)-2-fluorobenzonitrile] fall in the same range of IC50: 10 to 100 nM for the first, 10 to 100 nM for the second.

Compared with CCC[C@H](O)[C@]1(O)CN(S(=O)(=O)c2ccc(Cl)cn2)C[C@@H]1Oc1ccc(C#N)c(F)c1 [Example 189, 4-(((3S,4R)-1-((5-chloropyridin-2-yl)sulfonyl)-4-hydroxy-4-((S)-1-hydroxybutyl)pyrrolidin-3-yl)oxy)-2-fluorobenzonitrile], CCC[C@@H](O)[C@]1(O)CN(S(=O)(=O)c2ccc(Cl)cn2)C[C@@H]1Oc1ccc(C#N)c(F)c1 [Example 198, 4-(((3S,4R)-1-((5-chloropyridin-2-yl)sulfonyl)-4-hydroxy-4-((R)-1-hydroxybutyl)pyrrolidin-3-yl)oxy)-2-fluorobenzonitrile] is lower in IC50: 10 to 100 nM for the first, 0.1 to 10 nM for the second.

C[C@H](O)[C@]1(O)CN(S(=O)(=O)c2ccc(C(F)(F)F)cc2C#N)C[C@@H]1Oc1ccc(C#N)c(F)c1 [Example 190, 4-(((3S,4R)-1-((2-cyano-4-(trifluoromethyl)phenyl)sulfonyl)-4-hydroxy-4-(1-hydroxyethyl)pyrrolidin-3-yl)oxy)-2-fluorobenzonitrile] and C[C@@H](O)[C@]1(O)CN(S(=O)(=O)c2ccc(C(F)(F)F)cc2C#N)C[C@@H]1Oc1ccc(C#N)c(F)c1 [Example 193, 4-(((3S,4R)-1-((2-cyano-4-(trifluoromethyl)phenyl)sulfonyl)-4-hydroxy-4-((R)-1-hydroxyethyl)pyrrolidin-3-yl)oxy)-2-fluorobenzonitrile] fall in the same range of IC50: 0.1 to 10 nM for the first, 0.1 to 10 nM for the second.

Compared with C[C@H](O)[C@@]1(O)CN(S(=O)(=O)c2ccc(C(F)(F)F)cc2C#N)C[C@@H]1Oc1ccc(C#N)c(F)c1 [Example 194, 4-(((3S,4S)-1-((2-cyano-4-(trifluoromethyl)phenyl)sulfonyl)-4-hydroxy-4-((S)-1-hydroxyethyl)pyrrolidin-3-yl)oxy)-2-fluorobenzonitrile], C[C@H](O)[C@]1(O)CN(S(=O)(=O)c2ccc(F)cc2C#N)C[C@@H]1Oc1ccc(C#N)c(F)c1 [Example 201, 4-(((3S,4R)-1-((2-cyano-4-fluorophenyl)sulfonyl)-4-hydroxy-4-((S)-1-hydroxyethyl)pyrrolidin-3-yl)oxy)-2-fluorobenzonitrile] is lower in IC50: 10 to 100 nM for the first, 0.1 to 10 nM for the second.

CC[C@@H](O)[C@]1(O)CN(S(=O)(=O)c2ccc(Cl)cn2)C[C@@H]1Oc1ccc(C#N)c(F)c1 [Example 196, 4-(((3S,4R)-1-((5-chloropyridin-2-yl)sulfonyl)-4-hydroxy-4-((R)-1-hydroxypropyl)pyrrolidin-3-yl)oxy)-2-fluorobenzonitrile] and CC(C)C[C@@H](O)[C@]1(O)CN(S(=O)(=O)c2ccc(Cl)cn2)C[C@@H]1Oc1ccc(C#N)c(F)c1 [Example 197, 4-(((3S,4R)-1-((5-chloropyridin-2-yl)sulfonyl)-4-hydroxy-4-((R)-1-hydroxy-3-methylbutyl)pyrrolidin-3-yl)oxy)-2-fluorobenzonitrile] fall in the same range of IC50: 0.1 to 10 nM for the first, 0.1 to 10 nM for the second.

COc1ccc(S(=O)(=O)N2C[C@H](Oc3ccc(C#N)c(F)c3)[C@](O)([C@H](C)O)C2)c(C#N)c1 [Example 199, 4-(((3S,4R)-1-((2-cyano-4-methoxyphenyl)sulfonyl)-4-hydroxy-4-((S)-1-hydroxyethyl)pyrrolidin-3-yl)oxy)-2-fluorobenzonitrile] was tested, and the IC50 was 10 to 100 nM.
